Test results reported in ChEMBL document CHEMBL1149427 (Bioorg Med Chem Lett, 2006).

Assays:
[1] = target: Histamine H1 receptor (Cavia porcellus) (UniProt P31389); assay: (§1) Agonist activity at histamine H1 receptor in guinea pig ileum; assay type: functional, tissue-based
[2] = target: Histamine H1 receptor (Cavia porcellus) (UniProt P31389); assay: Functional activity at the histamine H1 receptor in guinea pig ileum; assay type: tissue-based
[3] = target: Histamine H1 receptor (Cavia porcellus, UniProt P31389); assay: as §1; assay type: functional, tissue-based
[4] = target: Histamine H1 receptor (Cavia porcellus) (UniProt P31389); assay: Agonist activity at histamine H1 receptor in guinea pig ileum in presence of mepyramine; assay type: functional, tissue-based

Chain of Histamine H1 receptor (Cavia porcellus) (P31389 whole entry): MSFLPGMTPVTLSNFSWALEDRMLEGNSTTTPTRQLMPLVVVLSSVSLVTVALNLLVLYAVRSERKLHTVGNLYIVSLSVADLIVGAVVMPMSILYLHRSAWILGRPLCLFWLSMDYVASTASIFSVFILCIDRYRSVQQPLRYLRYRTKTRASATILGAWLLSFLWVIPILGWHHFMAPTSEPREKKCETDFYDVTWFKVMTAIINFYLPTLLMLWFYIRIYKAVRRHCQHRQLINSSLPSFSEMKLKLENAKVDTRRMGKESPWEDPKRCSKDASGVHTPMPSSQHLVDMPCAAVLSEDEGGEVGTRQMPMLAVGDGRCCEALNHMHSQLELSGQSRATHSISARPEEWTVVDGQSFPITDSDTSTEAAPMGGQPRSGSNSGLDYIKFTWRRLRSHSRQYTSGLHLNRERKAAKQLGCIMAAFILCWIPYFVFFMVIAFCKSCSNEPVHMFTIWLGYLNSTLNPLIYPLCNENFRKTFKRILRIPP
Chain of Histamine H1 receptor (P31389 whole entry): as above

Row | Structure (SMILES) | Emax [1] [%] | pD'2 [2] | Activity [1] [%] | EC50 [3] [nM] | Emax [4] [%]
1 | COC(=O)C(N)C(O)c1c[nH]c(C(=O)CC(c2ccccc2)c2ccccc2)n1 (racemic) | 0 | 3.8 |  |  | 
2 | N[C@H](CO)[C@H](O)c1c[nH]c(C(=O)CC(c2ccccc2)c2ccccc2)n1 | 0 | 4.08 |  |  | 
3 | COCCOCn1cc(CCN)nc1C(=O)CC(c1ccccc1)c1ccccc1 | 0 | 5.05 |  |  | 
4 | NCCc1c[nH]c(C(=O)CC(c2ccccc2)c2ccccc2)n1 | 75 |  | 12 | 1660 | 47
5 | NCCc1c[nH]cn1 |  |  | 100 |  | 
6 | COC(=O)[C@@H](N)[C@H](O)c1c[nH]c(C(=O)CC(c2ccccc2)c2ccccc2)n1 | 0 | 4.61 |  |  | 
